Data reported in paper PMC6931042 (Bioorganic chemistry, 2018).

Columns and labels:
K-562 = experiment: NCI in vitro five dose anticancer assay; assay type: cell-based, human; settings: Homo sapiens, K562
RPMI-8226 = experiment: NCI in vitro five dose anticancer assay; assay type: cell-based, human; settings: Homo sapiens
A549/ATCC = experiment: NCI in vitro five dose anticancer assay; assay type: cell-based, human; settings: Homo sapiens, A549
HOP-62 = experiment: NCI in vitro five dose anticancer assay; assay type: cell-based, human; settings: Homo sapiens
NCI-H23 = experiment: NCI in vitro five dose anticancer assay; assay type: cell-based, human; settings: Homo sapiens
NCI-H322M = experiment: NCI in vitro five dose anticancer assay; assay type: cell-based, human; settings: Homo sapiens
NCI-H460 = experiment: NCI in vitro five dose anticancer assay; assay type: cell-based, human; settings: Homo sapiens
NCI-H522 = experiment: NCI in vitro five dose anticancer assay; assay type: cell-based, human; settings: Homo sapiens
COLO 205 = experiment: NCI in vitro five dose anticancer assay; assay type: cell-based, human; settings: Homo sapiens
HCT-15 = experiment: NCI in vitro five dose anticancer assay; assay type: cell-based, human; settings: Homo sapiens
HT29 = experiment: NCI in vitro five dose anticancer assay; assay type: cell-based, human; settings: Homo sapiens, HT-29
KM12 = experiment: NCI in vitro five dose anticancer assay; assay type: cell-based, human; settings: Homo sapiens
SW-620 = experiment: NCI in vitro five dose anticancer assay; assay type: cell-based, human; settings: Homo sapiens
SF-268 = experiment: NCI in vitro five dose anticancer assay; assay type: cell-based, human; settings: Homo sapiens
SF-295 = experiment: NCI in vitro five dose anticancer assay; assay type: cell-based, human; settings: Homo sapiens
SNB-19 = experiment: NCI in vitro five dose anticancer assay; assay type: cell-based, human; settings: Homo sapiens
U251 = experiment: NCI in vitro five dose anticancer assay; assay type: cell-based, human; settings: Homo sapiens, U-251
PC-3 = experiment: NCI in vitro five dose anticancer assay; assay type: cell-based, human; settings: Homo sapiens
MALME-3M = experiment: NCI in vitro five dose anticancer assay; assay type: cell-based, human; settings: Homo sapiens, Malme-3M
M14 = experiment: NCI in vitro five dose anticancer assay; assay type: cell-based, human; settings: Homo sapiens
SK-MEL-28 = experiment: NCI in vitro five dose anticancer assay; assay type: cell-based, human; settings: Homo sapiens
IGROV1 = experiment: NCI in vitro five dose anticancer assay; assay type: cell-based, human; settings: Homo sapiens, IGROV-1
OVCAR-3 = experiment: NCI in vitro five dose anticancer assay; assay type: cell-based, human; settings: Homo sapiens
786–0 = experiment: NCI in vitro five dose anticancer assay; assay type: cell-based, human; settings: Homo sapiens, 786-0
ACHN = experiment: NCI in vitro five dose anticancer assay; assay type: cell-based, human; settings: Homo sapiens
RXF 393 = experiment: NCI in vitro five dose anticancer assay; assay type: cell-based, human; settings: Homo sapiens
SN12C = experiment: NCI in vitro five dose anticancer assay; assay type: cell-based, human; settings: Homo sapiens
TK-10 = experiment: NCI in vitro five dose anticancer assay; assay type: cell-based, human; settings: Homo sapiens
MDA-MB231/ATCC = experiment: NCI in vitro five dose anticancer assay; assay type: cell-based, human; settings: Homo sapiens, MDA-MB-231
HS 578T = experiment: NCI in vitro five dose anticancer assay; assay type: cell-based, human; settings: Homo sapiens, Hs-578T
NCI 60 cell lines = experiment: NCI single dose; assay type: cell-based, human; settings: Homo sapiens, 60 cell, 48 h, read-out: mean growth inhibition
A549 and K-562 cells = experiment: Cytotoxicity IC50 stated jointly for the 2 cell lines; assay type: cell-based, human; settings: Homo sapiens, read-out: IC50 against the 2 cell lines tested
K-562 cells [1] = experiment: Cell cycle analysis by flow cytometry; assay type: cell-based, human; settings: 24 h
A549 cells = experiment: Apoptosis, annexin V-FITC/PI flow cytometry; assay type: cell-based, human; settings: for percentage of apoptotic cells: 48 h
K-562 cells [2] = experiment: Apoptosis, annexin V-FITC/PI flow cytometry; assay type: cell-based, human; settings: 24 h
class I PI3K enzymes = experiment: PI3K biochemical assay, all isoforms stated jointly; settings: read-out: IC50s against the different PI3K isoforms; range over PI3K-α, β, γ, δ
[3] = test system: p53, p21, cyclin B1 and Cdc2 in A549 cells; experiment: Western blotting, p53 and cell cycle regulators; assay type: cell-based, human; settings: 1, 3 and 6 μM, western blot
[4] = test system: p53, p21, cyclin B1 and Cdc2 in K-562 cells; experiment: Western blotting, p53 and cell cycle regulators; assay type: cell-based, human; settings: 1, 3 and 6 μM, western blot
[5] = test system: Bcl-2, Bax, and cleaved caspases (3, 8, and 9) in A549 cells; experiment: Western blotting, apoptosis markers; assay type: cell-based, human; settings: 48 h, 1, 3 and 6 μM, western blot
[6] = test system: Bax and cleaved caspases (3, 8, and 9) in K-562 cells; experiment: Western blotting, apoptosis markers; assay type: cell-based, human; settings: 24 h, 1, 3 and 6 μM, western blot
[7] = test system: p-PI3K, p-Akt, p-mTOR and p-GSK-3β in K-562 cells; experiment: Western blotting, PI3K/Akt/mTOR pathway; assay type: cell-based, human; settings: 1, 3, or 6 μM, western blot, dose-dependent
PI3K-β = PI3K-β (Homo sapiens, UniProt P42338); experiment: PI3K biochemical assay
Sequence of PI3K-β (P42338 whole entry): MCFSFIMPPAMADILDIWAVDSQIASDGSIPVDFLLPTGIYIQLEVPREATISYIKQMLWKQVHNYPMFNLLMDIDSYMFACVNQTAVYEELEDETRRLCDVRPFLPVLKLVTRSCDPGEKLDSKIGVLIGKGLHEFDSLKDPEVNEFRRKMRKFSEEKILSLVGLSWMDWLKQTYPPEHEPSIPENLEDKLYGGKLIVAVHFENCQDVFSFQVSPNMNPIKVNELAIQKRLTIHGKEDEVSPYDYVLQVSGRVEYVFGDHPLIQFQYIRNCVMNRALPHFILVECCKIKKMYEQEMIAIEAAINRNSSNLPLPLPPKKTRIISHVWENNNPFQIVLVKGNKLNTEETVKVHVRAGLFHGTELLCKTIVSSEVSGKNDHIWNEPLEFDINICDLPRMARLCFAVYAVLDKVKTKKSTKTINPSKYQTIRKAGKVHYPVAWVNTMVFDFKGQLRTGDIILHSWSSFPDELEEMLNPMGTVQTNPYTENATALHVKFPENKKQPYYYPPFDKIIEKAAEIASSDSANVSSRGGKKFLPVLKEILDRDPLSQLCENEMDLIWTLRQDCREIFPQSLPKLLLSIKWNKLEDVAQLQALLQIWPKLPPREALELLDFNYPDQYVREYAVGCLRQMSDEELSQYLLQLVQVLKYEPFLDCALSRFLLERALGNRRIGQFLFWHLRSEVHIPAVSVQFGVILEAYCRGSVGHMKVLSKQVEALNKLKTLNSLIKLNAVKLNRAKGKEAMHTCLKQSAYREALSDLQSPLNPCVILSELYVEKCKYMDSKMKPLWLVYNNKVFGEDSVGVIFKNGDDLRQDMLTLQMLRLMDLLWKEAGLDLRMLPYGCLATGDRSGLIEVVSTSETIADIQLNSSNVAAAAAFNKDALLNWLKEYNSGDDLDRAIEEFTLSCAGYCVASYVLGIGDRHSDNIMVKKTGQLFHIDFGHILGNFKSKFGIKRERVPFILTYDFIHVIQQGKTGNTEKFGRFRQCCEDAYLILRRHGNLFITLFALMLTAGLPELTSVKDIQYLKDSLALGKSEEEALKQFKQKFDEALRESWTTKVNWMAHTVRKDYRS
Sequence of PI3K-β (P27986 whole entry partner): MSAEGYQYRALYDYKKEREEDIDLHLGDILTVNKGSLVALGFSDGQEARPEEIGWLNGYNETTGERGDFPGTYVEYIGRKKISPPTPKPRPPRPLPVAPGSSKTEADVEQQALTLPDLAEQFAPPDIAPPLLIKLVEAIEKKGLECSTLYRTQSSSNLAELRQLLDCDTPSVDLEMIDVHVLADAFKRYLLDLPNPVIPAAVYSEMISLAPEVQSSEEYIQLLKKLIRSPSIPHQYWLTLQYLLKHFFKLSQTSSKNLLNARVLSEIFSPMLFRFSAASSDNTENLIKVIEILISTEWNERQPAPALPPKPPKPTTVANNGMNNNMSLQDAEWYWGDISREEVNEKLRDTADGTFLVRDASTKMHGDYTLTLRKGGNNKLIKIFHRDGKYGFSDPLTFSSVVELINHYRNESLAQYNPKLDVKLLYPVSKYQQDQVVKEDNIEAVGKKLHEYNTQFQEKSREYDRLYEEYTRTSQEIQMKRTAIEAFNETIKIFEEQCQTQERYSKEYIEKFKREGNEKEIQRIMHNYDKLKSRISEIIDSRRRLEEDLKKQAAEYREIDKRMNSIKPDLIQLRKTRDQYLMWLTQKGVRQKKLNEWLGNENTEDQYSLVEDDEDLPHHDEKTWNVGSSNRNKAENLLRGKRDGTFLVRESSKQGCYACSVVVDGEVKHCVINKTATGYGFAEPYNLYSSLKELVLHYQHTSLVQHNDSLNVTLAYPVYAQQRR

Compound: Cc1ccc(-c2cc(C(=O)NN=C(/C=C\c3ccc(Cl)cc3)c3ccc(N)cc3)c3ccccc3n2)cc1 [Compound 9j, N’-((Z)-1-(4-Aminophenyl)-3-(4-chlorophenyl)allylidene)-2-(4-methylphenyl)quinoline-4-carbohydrazide]
- GI50 (K-562): 3.09 µM
- GI50 (RPMI-8226): 4.1 µM
- GI50 (A549/ATCC): 4.79 µM
- GI50 (HOP-62): 4.62 µM
- GI50 (NCI-H23): 5.02 µM
- GI50 (NCI-H322M): 4.73 µM
- GI50 (NCI-H460): 3.51 µM
- GI50 (NCI-H522): 0.622 µM
- GI50 (COLO 205): 2.8 µM
- GI50 (HCT-15): 3.33 µM
- GI50 (HT29): 3.35 µM
- GI50 (KM12): 3.46 µM
- GI50 (SW-620): 4.24 µM
- GI50 (SF-268): 4.09 µM
- GI50 (SF-295): 3.13 µM
- GI50 (SNB-19): 6.51 µM
- GI50 (U251): 4.51 µM
- GI50 (PC-3): 3.4 µM
- GI50 (MALME-3M): > 100 µM
- GI50 (M14): 2.54 µM
- GI50 (SK-MEL-28): 6.23 µM
- GI50 (IGROV1): 6.48 µM
- GI50 (OVCAR-3): 2.98 µM
- GI50 (786–0): 4.22 µM
- GI50 (ACHN): 4.19 µM
- GI50 (RXF 393): 1.63 µM
- GI50 (SN12C): 6.84 µM
- GI50 (TK-10): 8.51 µM
- GI50 (MDA-MB231/ATCC): 3.94 µM
- GI50 (HS 578T): 4.68 µM
- inhibition at 10 µM (NCI 60 cell lines): 74%
- IC50 (A549 and K-562 cells): 1.91 to 5.29 µM
- percentage of cells in the G2/M phase (K-562 cells [1]; 1 μM): 5.1%
- percentage of cells in the G2/M phase (K-562 cells [1]; 3 μM): 16.6%
- percentage of cells in the G2/M phase (K-562 cells [1]; 6 μM): 41.7%
- percentage of apoptotic cells (A549 cells; 1 μM): 14.68%
- percentage of apoptotic cells (A549 cells; 3 μM): 14.07%
- percentage of apoptotic cells (A549 cells; 6 μM): 28.1%
- proportion of apoptotic cells compared to control (A549 cells; 1, 3, or 6 μM, 24 h, data not shown): did not result in changes
- percentage of apoptotic cells (K-562 cells [2]; 1 μM): 16.65%
- percentage of apoptotic cells (K-562 cells [2]; 3 μM): 39.4%
- percentage of apoptotic cells (K-562 cells [2]; 6 μM): 47.1%
- IC50 (class I PI3K enzymes): 0.052 to 0.473 µM
- expression of wild type p53 [3]: upregulated
- expression of Cdc2 ([3]; dose dependent): attenuated
- expression of cyclin B1 ([3]; dose dependent): attenuated
- expression of p21 ([3]; dose dependent): significantly induced
- expression of non-functional p53 [4]: no effect
- expression of Cdc2 ([4]; dose dependent): attenuated
- expression of cyclin B1 ([4]; dose dependent): attenuated
- expression of p21 ([4]; dose dependent): significantly induced
- levels of Bcl-2 [5]: decreased
- levels of cleaved caspase 8 [5]: not altered
- levels of Bax ([5]; dose-dependent): increased
- levels of cleaved caspase 3 ([5]; dose-dependent): increased
- levels of cleaved caspase 9 ([5]; dose-dependent): increased
- levels of cleaved caspase 8 [6]: not change
- levels of Bax ([6]; dose-dependent): increased
- levels of cleaved caspase 3 ([6]; dose-dependent): increased
- levels of cleaved caspase 9 ([6]; dose-dependent): increased
- levels of phosphorylated Akt (at Ser473) [7]: decreases
- levels of phosphorylated GSK-3β [7]: decreases
- levels of phosphorylated PI3K (at Tyr458) [7]: decreases
- levels of phosphorylated mTOR (at Ser2448) [7]: decreases
- IC50 (PI3K-β): 0.36 µM
